What was measured:
Experiment in all cases: radiometric filter-binding kinase assay
DYRK3 (human) = DYRK3 (human) (UniProt O43781)
MAP3K9 (human) = MAP3K9 (human) (UniProt P80192)
MAP2K6 (human) = MAP2K6 (human) (UniProt P52564)
SYK (human) = SYK (human) (UniProt P43405)
FGFR1 (human) = FGFR1 (human) (UniProt P11362); conditions: compound 10.0 µM
GSK3B (human) = GSK3B (human) (UniProt P49841)
NEK6 (human) = NEK6 (human) (UniProt Q9HC98); conditions: compound 10.0 µM
MARK1 (human) = MARK1 (human) (UniProt Q9P0L2)
PKN2 (human) = PKN2 (human) (UniProt Q16513)
INSRR (human) = INSRR (human) (UniProt P14616)
SRPK1 (human) = SRPK1 (human) (UniProt Q96SB4)
[1] = test system: AKT1 (human), P31749 [S473D]
EPHA2 (human) = EPHA2 (human) (UniProt P29317)
MAPK13 (human) = MAPK13 (human) (UniProt O15264)
MAPK10 (human) = MAPK10 (human) (UniProt P53779)
[2] = test system: PAK2 (human), Q13177 [T402E]
MAPK11 (human) = MAPK11 (human) (UniProt Q15759)
PIM2 (human) = PIM2 (human) (UniProt Q9P1W9)
LCK (mouse) = conditions: accession and sequence are those of the human protein
NEK2 (human) = NEK2 (human) (UniProt P51955)
TTK (human) = TTK (human) (UniProt P33981)
IRAK4 (human) = IRAK4 (human) (UniProt Q9NWZ3)
ROCK2 (rat) = conditions: accession and sequence are those of the human protein
MARK2 (human) = MARK2 (human) (UniProt Q7KZI7)
TBK1 (human) = TBK1 (human) (UniProt Q9UHD2)
MAP2K1 (human) = MAP2K1 (human) (UniProt Q02750)
[3] = test system: AKT2 (human), P31751 [S474D]
[4] = test system: RPS6KB1 (human), P23443 [T412E]
PIM3 (human) = PIM3 (human) (UniProt Q86V86)
[5] = target: STK11 CAB39 STRADA (human) (UniProt Q9Y376+Q7RTN6+Q15831)
MYLK (human) = MYLK (human) (UniProt Q15746)
INSR (human) = INSR (human) (UniProt P06213)
CSNK2A1 (human) = CSNK2A1 (human) (UniProt P68400)
MKNK1 (human) = MKNK1 (human) (UniProt Q9BUB5)
EPHB1 (human) = EPHB1 (human) (UniProt P54762)
Chain of EPHB1 (human) (P54762 whole entry, looked up): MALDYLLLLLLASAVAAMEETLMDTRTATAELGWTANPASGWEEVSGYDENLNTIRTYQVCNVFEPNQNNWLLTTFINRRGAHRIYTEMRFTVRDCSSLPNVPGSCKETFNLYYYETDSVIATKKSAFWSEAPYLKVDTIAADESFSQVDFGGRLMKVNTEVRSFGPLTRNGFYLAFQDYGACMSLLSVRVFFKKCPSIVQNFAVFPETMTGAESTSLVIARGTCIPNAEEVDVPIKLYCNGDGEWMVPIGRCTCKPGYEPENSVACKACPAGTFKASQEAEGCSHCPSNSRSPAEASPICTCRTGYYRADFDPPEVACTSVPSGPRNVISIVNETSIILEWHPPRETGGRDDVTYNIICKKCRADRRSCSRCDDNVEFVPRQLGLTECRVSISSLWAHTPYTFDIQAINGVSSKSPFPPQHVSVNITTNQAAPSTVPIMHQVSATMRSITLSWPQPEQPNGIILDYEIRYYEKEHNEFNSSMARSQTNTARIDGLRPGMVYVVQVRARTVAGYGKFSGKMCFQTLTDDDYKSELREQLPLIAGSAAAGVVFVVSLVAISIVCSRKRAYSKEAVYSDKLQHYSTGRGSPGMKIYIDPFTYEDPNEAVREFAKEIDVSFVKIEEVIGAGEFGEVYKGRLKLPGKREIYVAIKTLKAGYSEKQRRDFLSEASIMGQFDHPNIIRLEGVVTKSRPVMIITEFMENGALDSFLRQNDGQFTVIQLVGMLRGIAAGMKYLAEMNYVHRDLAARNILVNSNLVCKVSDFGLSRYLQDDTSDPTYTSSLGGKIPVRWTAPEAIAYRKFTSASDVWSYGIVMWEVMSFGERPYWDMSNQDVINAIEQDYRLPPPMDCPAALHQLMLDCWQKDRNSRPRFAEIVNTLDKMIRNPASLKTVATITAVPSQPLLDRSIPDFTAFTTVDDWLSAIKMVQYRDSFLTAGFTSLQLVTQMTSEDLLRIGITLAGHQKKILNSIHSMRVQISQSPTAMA

Chain of INSRR (human) (P14616 whole entry, looked up): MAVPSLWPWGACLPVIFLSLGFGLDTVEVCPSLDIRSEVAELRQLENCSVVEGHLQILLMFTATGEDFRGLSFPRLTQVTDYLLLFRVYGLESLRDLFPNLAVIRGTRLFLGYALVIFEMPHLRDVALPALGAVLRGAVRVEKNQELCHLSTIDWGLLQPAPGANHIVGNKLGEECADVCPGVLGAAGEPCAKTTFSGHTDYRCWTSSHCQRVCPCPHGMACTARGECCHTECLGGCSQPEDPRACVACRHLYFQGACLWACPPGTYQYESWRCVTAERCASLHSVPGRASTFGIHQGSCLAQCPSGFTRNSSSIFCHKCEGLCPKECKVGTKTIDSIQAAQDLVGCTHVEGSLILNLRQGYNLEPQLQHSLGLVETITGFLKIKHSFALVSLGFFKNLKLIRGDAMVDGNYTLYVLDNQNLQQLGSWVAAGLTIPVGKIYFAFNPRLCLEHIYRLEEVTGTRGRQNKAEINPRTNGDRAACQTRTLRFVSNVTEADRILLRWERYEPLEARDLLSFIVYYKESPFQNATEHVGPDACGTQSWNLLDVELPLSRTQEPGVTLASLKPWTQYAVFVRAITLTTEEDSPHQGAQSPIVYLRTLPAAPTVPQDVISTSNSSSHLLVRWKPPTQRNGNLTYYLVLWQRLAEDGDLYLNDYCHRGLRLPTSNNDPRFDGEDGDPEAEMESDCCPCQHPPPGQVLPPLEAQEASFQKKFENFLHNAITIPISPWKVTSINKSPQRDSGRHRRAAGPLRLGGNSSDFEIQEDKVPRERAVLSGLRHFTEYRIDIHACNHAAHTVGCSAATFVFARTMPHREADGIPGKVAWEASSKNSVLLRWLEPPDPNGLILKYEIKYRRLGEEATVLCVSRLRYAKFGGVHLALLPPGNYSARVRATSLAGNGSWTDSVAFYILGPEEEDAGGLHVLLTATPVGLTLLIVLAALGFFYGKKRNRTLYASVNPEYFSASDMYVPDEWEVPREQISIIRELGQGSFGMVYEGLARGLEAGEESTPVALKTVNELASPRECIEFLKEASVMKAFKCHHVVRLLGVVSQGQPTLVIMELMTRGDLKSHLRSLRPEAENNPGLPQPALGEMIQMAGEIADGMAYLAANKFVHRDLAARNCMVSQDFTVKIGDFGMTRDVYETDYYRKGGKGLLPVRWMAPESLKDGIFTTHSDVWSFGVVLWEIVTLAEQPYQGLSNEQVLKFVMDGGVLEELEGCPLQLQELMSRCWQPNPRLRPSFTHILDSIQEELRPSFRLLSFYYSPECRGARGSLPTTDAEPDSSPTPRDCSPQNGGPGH
Chain of TTK (human) (P33981 whole entry, looked up): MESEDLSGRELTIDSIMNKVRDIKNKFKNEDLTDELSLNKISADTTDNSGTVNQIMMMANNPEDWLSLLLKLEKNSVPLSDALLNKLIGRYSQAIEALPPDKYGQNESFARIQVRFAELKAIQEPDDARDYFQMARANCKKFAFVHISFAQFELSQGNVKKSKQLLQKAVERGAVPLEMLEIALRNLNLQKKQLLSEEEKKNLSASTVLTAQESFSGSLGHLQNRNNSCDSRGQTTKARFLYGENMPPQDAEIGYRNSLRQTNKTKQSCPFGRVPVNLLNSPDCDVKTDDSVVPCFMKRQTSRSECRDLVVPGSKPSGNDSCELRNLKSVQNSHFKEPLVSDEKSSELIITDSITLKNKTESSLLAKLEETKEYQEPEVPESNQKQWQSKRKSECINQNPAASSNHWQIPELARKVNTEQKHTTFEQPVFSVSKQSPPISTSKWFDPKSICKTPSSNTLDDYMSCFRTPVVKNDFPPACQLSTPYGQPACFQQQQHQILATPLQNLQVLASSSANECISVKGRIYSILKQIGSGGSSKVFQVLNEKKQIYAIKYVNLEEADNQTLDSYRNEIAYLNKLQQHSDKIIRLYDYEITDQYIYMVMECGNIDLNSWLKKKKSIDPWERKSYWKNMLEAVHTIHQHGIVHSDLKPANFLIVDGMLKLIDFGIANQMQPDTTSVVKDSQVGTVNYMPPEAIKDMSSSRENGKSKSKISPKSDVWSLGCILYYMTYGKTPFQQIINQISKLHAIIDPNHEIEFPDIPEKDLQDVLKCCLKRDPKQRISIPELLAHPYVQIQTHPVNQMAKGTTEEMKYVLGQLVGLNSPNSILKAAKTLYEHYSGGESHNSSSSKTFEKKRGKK
Chain of STK11 CAB39 STRADA (human) (Q15831 whole entry, looked up): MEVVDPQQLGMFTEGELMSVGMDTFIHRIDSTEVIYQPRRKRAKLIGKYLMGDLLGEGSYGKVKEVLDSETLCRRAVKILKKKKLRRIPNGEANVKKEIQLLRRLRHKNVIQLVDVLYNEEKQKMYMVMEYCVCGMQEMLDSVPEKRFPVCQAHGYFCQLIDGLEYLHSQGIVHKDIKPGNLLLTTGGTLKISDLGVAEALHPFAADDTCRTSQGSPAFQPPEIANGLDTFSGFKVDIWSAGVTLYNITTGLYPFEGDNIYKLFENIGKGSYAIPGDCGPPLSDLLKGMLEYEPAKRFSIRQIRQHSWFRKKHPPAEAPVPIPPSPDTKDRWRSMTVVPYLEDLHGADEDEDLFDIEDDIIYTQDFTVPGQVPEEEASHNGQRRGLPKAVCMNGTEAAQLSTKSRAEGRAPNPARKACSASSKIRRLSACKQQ
Chain of STK11 CAB39 STRADA (human) (Q7RTN6 whole entry, looked up): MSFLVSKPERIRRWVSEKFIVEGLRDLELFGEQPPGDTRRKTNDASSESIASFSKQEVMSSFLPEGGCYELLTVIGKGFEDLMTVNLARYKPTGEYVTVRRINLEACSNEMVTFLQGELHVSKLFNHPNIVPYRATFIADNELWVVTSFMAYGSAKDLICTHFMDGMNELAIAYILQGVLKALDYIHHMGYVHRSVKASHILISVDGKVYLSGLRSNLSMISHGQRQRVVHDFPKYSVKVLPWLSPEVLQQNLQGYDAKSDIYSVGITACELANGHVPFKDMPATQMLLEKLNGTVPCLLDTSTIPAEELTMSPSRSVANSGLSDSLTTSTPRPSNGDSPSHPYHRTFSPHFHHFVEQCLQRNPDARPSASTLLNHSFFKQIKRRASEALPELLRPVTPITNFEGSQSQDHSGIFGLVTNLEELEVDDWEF
Chain of STK11 CAB39 STRADA (human) (Q9Y376 whole entry, looked up): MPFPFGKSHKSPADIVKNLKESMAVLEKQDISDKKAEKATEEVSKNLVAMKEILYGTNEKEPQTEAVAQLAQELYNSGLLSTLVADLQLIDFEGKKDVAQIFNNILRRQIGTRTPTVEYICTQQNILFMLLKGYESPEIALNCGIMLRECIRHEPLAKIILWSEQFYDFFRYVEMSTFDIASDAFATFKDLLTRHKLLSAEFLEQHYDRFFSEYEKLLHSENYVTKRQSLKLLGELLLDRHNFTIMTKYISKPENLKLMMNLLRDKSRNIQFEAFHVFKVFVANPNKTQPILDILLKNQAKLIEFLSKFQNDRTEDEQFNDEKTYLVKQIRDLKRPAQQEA
Chain of PIM2 (human) (Q9P1W9 whole entry, looked up): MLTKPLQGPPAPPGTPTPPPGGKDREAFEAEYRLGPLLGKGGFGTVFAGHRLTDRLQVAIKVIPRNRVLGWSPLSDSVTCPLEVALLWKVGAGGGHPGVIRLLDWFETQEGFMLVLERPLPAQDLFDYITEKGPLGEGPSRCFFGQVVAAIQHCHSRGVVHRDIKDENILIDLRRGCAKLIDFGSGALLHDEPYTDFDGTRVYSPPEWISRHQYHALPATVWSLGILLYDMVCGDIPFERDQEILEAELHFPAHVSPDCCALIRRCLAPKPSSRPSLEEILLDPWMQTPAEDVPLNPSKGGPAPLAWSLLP

In the case of COC(=O)/C=C/C(=O)OC, the residual activity (DYRK3 (human); compound 10.0 µM) is reported as 105%, the residual activity (DYRK3 (human); compound 1000.0 µM) is reported as 106% and the residual activity (MAP3K9 (human); compound 10.0 µM) is reported as 87%. For the same compound, the residual activity (MAP3K9 (human); compound 100.0 µM) was 112%, the residual activity (MAP3K9 (human); compound 1000.0 µM) was 135% and the residual activity (MAP2K6 (human); compound 10.0 µM) was 92%. For the same compound, the residual activity (MAP2K6 (human); compound 100.0 µM) was 88%, the residual activity (SYK (human); compound 10.0 µM) was 106% and the residual activity (SYK (human); compound 100.0 µM) was 118%. It also gave a residual activity (SYK (human); compound 1000.0 µM) of 116%, a residual activity (FGFR1 (human)) of 85% and a residual activity (GSK3B (human); compound 10.0 µM) of 92%. For the same compound, the residual activity (GSK3B (human); compound 1000.0 µM) was 108%, the residual activity (NEK6 (human)) was 103% and the residual activity (MARK1 (human); compound 10.0 µM) was 98%. It also gave a residual activity (MARK1 (human); compound 100.0 µM) of 115%, a residual activity (MARK1 (human); compound 1000.0 µM) of 108% and a residual activity (PKN2 (human); compound 100.0 µM) of 108%. For the same compound, the residual activity (PKN2 (human); compound 1000.0 µM) was 84%, the residual activity (INSRR (human); compound 10.0 µM) was 103% and the residual activity (INSRR (human); compound 100.0 µM) was 108%. It also gave a residual activity (INSRR (human); compound 1000.0 µM) of 112%, a residual activity (SRPK1 (human); compound 10.0 µM) of 91% and a residual activity (SRPK1 (human); compound 100.0 µM) of 101%. For the same compound, the residual activity (SRPK1 (human); compound 1000.0 µM) was 103%, the residual activity ([1]; compound 10.0 µM) was 93% and the residual activity ([1]; compound 100.0 µM) was 94%. It also gave a residual activity ([1]; compound 1000.0 µM) of 103%, a residual activity (EPHA2 (human); compound 10.0 µM) of 106% and a residual activity (EPHA2 (human); compound 100.0 µM) of 124%. For the same compound, the residual activity (EPHA2 (human); compound 1000.0 µM) was 129%, the residual activity (MAPK13 (human); compound 10.0 µM) was 92% and the residual activity (MAPK13 (human); compound 100.0 µM) was 102%. The residual activity (MAPK10 (human); compound 10.0 µM) was 103%, the residual activity (MAPK10 (human); compound 100.0 µM) was 103% and the residual activity (MAPK10 (human); compound 1000.0 µM) was 100%. The residual activity ([2]; compound 10.0 µM) was 101%, the residual activity ([2]; compound 100.0 µM) was 104% and the residual activity ([2]; compound 1000.0 µM) was 86%. It also gave a residual activity (MAPK11 (human); compound 10.0 µM) of 111%, a residual activity (MAPK11 (human); compound 1000.0 µM) of 104% and a residual activity (PIM2 (human); compound 10.0 µM) of 117%. The residual activity (PIM2 (human); compound 100.0 µM) was 109%, the residual activity (PIM2 (human); compound 1000.0 µM) was 116% and the residual activity (LCK (mouse); compound 10.0 µM) was 74%. The residual activity (LCK (mouse); compound 100.0 µM) was 72%, the residual activity (LCK (mouse); compound 1000.0 µM) was 84% and the residual activity (NEK2 (human); compound 10.0 µM) was 100%. The residual activity (NEK2 (human); compound 100.0 µM) was 100%, the residual activity (NEK2 (human); compound 1000.0 µM) was 102% and the residual activity (TTK (human); compound 10.0 µM) was 98%. For the same compound, the residual activity (TTK (human); compound 100.0 µM) was 93%, the residual activity (TTK (human); compound 1000.0 µM) was 93% and the residual activity (IRAK4 (human); compound 10.0 µM) was 88%. The residual activity (IRAK4 (human); compound 100.0 µM) was 104%, the residual activity (IRAK4 (human); compound 1000.0 µM) was 117% and the residual activity (ROCK2 (rat); compound 10.0 µM) was 81%. The residual activity (ROCK2 (rat); compound 100.0 µM) was 89%, the residual activity (ROCK2 (rat); compound 1000.0 µM) was 98% and the residual activity (MARK2 (human); compound 10.0 µM) was 91%. For the same compound, the residual activity (MARK2 (human); compound 100.0 µM) was 108%, the residual activity (TBK1 (human); compound 10.0 µM) was 89% and the residual activity (TBK1 (human); compound 100.0 µM) was 100%. The residual activity (MAP2K1 (human); compound 100.0 µM) was 109%, the residual activity (MAP2K1 (human); compound 1000.0 µM) was 118% and the residual activity ([3]; compound 10.0 µM) was 81%. It also gave a residual activity ([3]; compound 100.0 µM) of 93%, a residual activity ([3]; compound 1000.0 µM) of 106% and a residual activity ([4]; compound 10.0 µM) of 99%. It also gave a residual activity ([4]; compound 100.0 µM) of 101%, a residual activity ([4]; compound 1000.0 µM) of 115% and a residual activity (PIM3 (human); compound 10.0 µM) of 96%. The residual activity (PIM3 (human); compound 100.0 µM) was 106%, the residual activity (PIM3 (human); compound 1000.0 µM) was 92% and the residual activity ([5]; compound 10.0 µM) was 93%. For the same compound, the residual activity ([5]; compound 100.0 µM) was 97%, the residual activity ([5]; compound 1000.0 µM) was 100% and the residual activity (MYLK (human); compound 100.0 µM) was 99%. It also gave a residual activity (MYLK (human); compound 1000.0 µM) of 102%, a residual activity (INSR (human); compound 10.0 µM) of 60% and a residual activity (INSR (human); compound 100.0 µM) of 62%. The residual activity (INSR (human); compound 1000.0 µM) was 79%, the residual activity (CSNK2A1 (human); compound 10.0 µM) was 98% and the residual activity (CSNK2A1 (human); compound 100.0 µM) was 95%. It also gave a residual activity (CSNK2A1 (human); compound 1000.0 µM) of 91%, a residual activity (MKNK1 (human); compound 10.0 µM) of 101% and a residual activity (MKNK1 (human); compound 100.0 µM) of 103%. It also gave a residual activity (MKNK1 (human); compound 1000.0 µM) of 105%, a residual activity (EPHB1 (human); compound 10.0 µM) of 101% and a residual activity (EPHB1 (human); compound 100.0 µM) of 103%. The residual activity (EPHB1 (human); compound 1000.0 µM) was 104%.

Reference: the kinase profiling compilation of Christmann-Franck et al. (2016)
